Consider 16 compounds from US20150344540A1, “NOVEL GLP-1 RECEPTOR AGONISTS WITH CHOLESTEROL EFFLUX ACTIVITY” (NOVO NORDISK A/S, priority 2012, published 2015).

The target in this test is human GLP-1 receptor (Homo sapiens, UniProt P43220). The experiment in a line: Functional GLP-1 receptor assay, in vitro potency (CRE luciferase; whole cells). In kind it is cell-based. To be noted: BHK cells expressing human GLP-1 receptor.
[1] abbreviates: GLP1R CRE luc 1% HSA EC50 Mean Value, 1% HSA.
Setting [2] is: 0% HSA, read-out: GLP1R CRE luc 0% HSA EC50 Mean Value.

pEC50: −log10 of the molar value. Like-named read-outs stand apart in the source and are kept apart here. Where a SMILES comes first, the peptide text is derived from it. Where no end group is shown, it is not given here. [ ]: non-standard residue; d: D form. Aib = CC(C)(N)C(=O)O

Sequence of human GLP-1 receptor (P43220 24-463): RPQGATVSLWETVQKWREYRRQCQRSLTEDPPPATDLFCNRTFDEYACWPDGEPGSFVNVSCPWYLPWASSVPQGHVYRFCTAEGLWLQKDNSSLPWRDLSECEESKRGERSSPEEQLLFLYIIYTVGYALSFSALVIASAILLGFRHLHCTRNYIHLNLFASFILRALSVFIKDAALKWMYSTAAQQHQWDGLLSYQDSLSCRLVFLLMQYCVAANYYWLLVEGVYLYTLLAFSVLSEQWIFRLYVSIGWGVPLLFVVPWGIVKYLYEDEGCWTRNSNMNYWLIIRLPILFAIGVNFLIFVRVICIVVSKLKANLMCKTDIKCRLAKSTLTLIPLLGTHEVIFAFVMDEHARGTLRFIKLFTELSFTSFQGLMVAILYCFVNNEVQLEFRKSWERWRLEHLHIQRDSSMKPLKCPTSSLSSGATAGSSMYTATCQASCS

As usually defined, the pEC50 is −log10 of the EC50, conventionally taken in molar units. The compound `CC[C@H](C)[C@H](NC(=O)[C@H](Cc1ccccc1)NC(=O)[C@H](CCC(=O)O)NC(=O)[C@H](CCCCN)NC(=O)[C@@H](NC(=O)[C@H](C)NC(=O)[C@H](CCC(=O)O)NC(=O)CNC(=O)[C@H](CCC(=O)O)NC(=O)[C@H](CC(C)C)NC(=O)[C@H](Cc1ccc(O)cc1)NC(=O)[C@H](CC(N)=O)NC(=O)[C@@H](NC(=O)[C@H](CCSC)NC(=O)[C@H](CC(=O)O)NC(=O)[C@H](CC(N)=O)NC(=O)[C@@H](NC(=O)[C@H](Cc1ccccc1)NC(=O)[C@@H](NC(=O)CNC(=O)[C@H](CCC(=O)O)NC(=O)[C@H](C)NC(=O)[C@@H](N)Cc1c[nH]cn1)[C@@H](C)O)[C@@H](C)O)[C@@H](C)O)C(C)C)C(=O)N[C@@H](C)C(=O)N[C@@H](Cc1c[nH]c2ccccc12)C(=O)N[C@@H](CC(C)C)C(=O)N[C@H](C(=O)N[C@@H](CCC(=O)O)C(=O)N[C@@H](CCCCN)C(=O)NC(C)(C)C(=O)N[C@@H](CCCCN)C(=O)N[C@@H](CCC(=O)O)C(=O)N[C@@H](Cc1ccccc1)C(=O)N[C@@H](CC(C)C)C(N)=O)C(C)C` [Compound 44, [Asn14,Met16,Thr17,Asn18,Glu23,Val25,Glu34,Lys35,Aib36,Lys37]-GLP-1-(7-37)-peptidyl-Glu-Phe-Leu amide] (H-HAEGTFTNDMTNYLEGEAVKEFIAWLVEK[Aib]KEFL-NH2; N-terminus assumed) gave a pEC50 under setting [1] of 10.11.

“HAEGTFTSDVSSYLEEEAVKEFIAWLVEKVKEFL-NH2 [Compound 135, [Glu22,Glu23,Val25,Glu34,Lys35,Val36,Lys37]-GLP-1-(7-37)-peptidyl-Glu-Phe-Leu amide]” had a pEC50 under setting [1] of 9.94.

For `CC[C@H](C)[C@H](NC(=O)[C@H](Cc1ccccc1)NC(=O)[C@H](CCC(=O)O)NC(=O)[C@H](CCCCN)NC(=O)[C@H](C)NC(=O)[C@H](C)NC(=O)[C@H](CCCCN)NC(=O)[C@H](CCC(=O)O)NC(=O)[C@H](CCC(=O)O)NC(=O)[C@H](CC(C)C)NC(=O)[C@H](Cc1ccc(O)cc1)NC(=O)[C@H](CCCCN)NC(=O)[C@H](CO)NC(=O)[C@H](Cc1ccc(O)cc1)NC(=O)[C@H](CC(=O)O)NC(=O)[C@H](CO)NC(=O)[C@@H](NC(=O)[C@H](Cc1ccccc1)NC(=O)[C@@H](NC(=O)CNC(=O)[C@H](CCC(N)=O)NC(=O)[C@H](CO)NC(=O)[C@@H](N)Cc1c[nH]cn1)[C@@H](C)O)[C@@H](C)O)C(=O)N[C@@H](C)C(=O)N[C@@H](Cc1c[nH]c2ccccc12)C(=O)N[C@@H](CC(C)C)C(=O)N[C@@H](CC(C)C)C(=O)N[C@@H](CCC(=O)O)C(=O)N[C@@H](CCCCN)C(=O)NC(C)(C)C(=O)N[C@@H](CCCCN)C(=O)N[C@@H](CCC(=O)O)C(=O)N[C@@H](Cc1ccccc1)C(=O)N[C@@H](CC(C)C)C(N)=O` [Compound 57] (H-HSQGTFTSDYSKYLEEKAAKEFIAWLLEK[Aib]KEFL-NH2), the pEC50 under setting [2] is 10.07 and the pEC50 under setting [1] was 10.36.

On to `CC(C)C[C@H](NC(=O)[C@H](Cc1ccccc1)NC(=O)[C@H](CCC(=O)O)NC(=O)[C@H](CCCCN)NC(=O)C(C)(C)NC(=O)[C@H](CCCCN)NC(=O)[C@H](CCC(=O)O)NC(=O)[C@H](CC(C)C)NC(=O)[C@H](CC(C)C)NC(=O)[C@H](Cc1c[nH]c2ccccc12)NC(=O)[C@H](CCC(N)=O)NC(=O)[C@@H](NC(=O)[C@H](Cc1ccccc1)NC(=O)[C@H](CCC(=O)O)NC(=O)[C@H](CCCNC(=N)N)NC(=O)[C@H](C)NC(=O)[C@H](C)NC(=O)[C@H](CCCCN)NC(=O)[C@H](CO)NC(=O)[C@H](CC(=O)O)NC(=O)[C@H](CC(C)C)NC(=O)[C@H](Cc1ccc(O)cc1)NC(=O)[C@H](CCCCN)NC(=O)[C@H](CO)NC(=O)[C@H](Cc1ccc(O)cc1)NC(=O)[C@H](CC(=O)O)NC(=O)[C@H](CO)NC(=O)[C@@H](NC(=O)[C@H](Cc1ccccc1)NC(=O)[C@@H](NC(=O)CNC(=O)[C@H](CCC(N)=O)NC(=O)[C@H](CO)NC(=O)[C@@H](N)Cc1c[nH]cn1)[C@@H](C)O)[C@@H](C)O)C(C)C)C(N)=O` [Compound 59] (H-HSQGTFTSDYSKYLDSKAAREFVQWLLEK[Aib]KEFL-NH2), for which the pEC50 under setting [2] was 9.36 and the pEC50 under setting [1] is 9.70.

Turning to “HAEGTFTSDVSSYLEGQAAKEFIAWLVEKVKEFLE-NH2 [Compound 106, [Glu34,Lys35,Val36,Lys37]-GLP-1-(7-37)-peptidyl-Glu-Phe-Leu-Glu amide]”, the pEC50 is 9.94 under setting [2] and 10.55 under setting [1].

As for “HGEGTFTSDVSSYLEEEAVKEFIAWLVEKVKEF-NH2 [Compound 133, [Gly8,Glu22,Glu23,Val25,Glu34,Lys35,Val36,Lys37]-GLP-1-(7-37)-peptidyl-Glu-Phe amide]”, the pEC50 under setting [2] was 9.98.

`CC[C@H](C)[C@H](NC(=O)[C@H](Cc1ccccc1)NC(=O)[C@H](CCC(=O)O)NC(=O)[C@H](CCCCN)NC(=O)[C@@H](NC(=O)[C@H](C)NC(=O)[C@H](CCC(=O)O)NC(=O)CNC(=O)[C@H](CCC(=O)O)NC(=O)[C@H](CC(C)C)NC(=O)[C@H](Cc1ccc(O)cc1)NC(=O)[C@H](CCC(=O)O)NC(=O)[C@@H](NC(=O)[C@@H](NC(=O)[C@H](CC(=O)O)NC(=O)[C@H](CC(N)=O)NC(=O)[C@@H](NC(=O)[C@H](Cc1ccc(O)cc1)NC(=O)[C@@H](NC(=O)CNC(=O)[C@H](CCC(=O)O)NC(=O)[C@H](C)NC(=O)[C@@H](N)Cc1c[nH]cn1)[C@@H](C)O)[C@@H](C)O)C(C)C)[C@@H](C)O)C(C)C)C(=O)N[C@@H](C)C(=O)N[C@@H](Cc1c[nH]c2ccccc12)C(=O)N[C@@H](CC(C)C)C(=O)N[C@H](C(=O)N[C@@H](CCC(=O)O)C(=O)N[C@@H](CCCCN)C(=O)NC(C)(C)C(=O)N[C@@H](CCCCN)C(=O)N[C@@H](CCC(=O)O)C(=O)N[C@@H](Cc1ccccc1)C(=O)N[C@@H](CC(C)C)C(N)=O)C(C)C` [Compound 13, [Tyr12,Asn14,Thr17,Glu18,Glu23,Val25,Glu34,Lys35,Aib36,Lys37]-GLP-1-(7-37)-peptidyl-Glu-Phe-Leu amide] (H-HAEGTYTNDVTEYLEGEAVKEFIAWLVEK[Aib]KEFL-NH2; N-terminus assumed): the negative-log EC50 (pEC50) under setting [1] was 9.98.

As to “HAEGTFTSDVSSYLEGQAAKEFIAWLVEKVKEFL-NH2 [Compound 104, [Glu34,Lys35,Val36,Lys37]-GLP-1-(7-37)-peptidyl-Glu-Phe-Leu amide]”, the pEC50 runs as follows: under setting [2], 9.94; under setting [1], 10.64.

For `CC[C@H](C)[C@H](NC(=O)[C@H](Cc1ccccc1)NC(=O)[C@H](CCC(=O)O)NC(=O)[C@H](CCCCN)NC(=O)[C@H](C)NC(=O)[C@H](CCCCN)NC(=O)[C@H](CCCCN)NC(=O)[C@H](CCC(=O)O)NC(=O)[C@H](CCC(=O)O)NC(=O)[C@H](CC(C)C)NC(=O)[C@H](Cc1ccc(O)cc1)NC(=O)[C@H](CCCCN)NC(=O)[C@H](CO)NC(=O)[C@H](Cc1ccc(O)cc1)NC(=O)[C@H](CC(=O)O)NC(=O)[C@H](CO)NC(=O)[C@@H](NC(=O)[C@H](Cc1ccccc1)NC(=O)[C@@H](NC(=O)CNC(=O)[C@H](CCC(N)=O)NC(=O)[C@H](CO)NC(=O)[C@@H](N)Cc1c[nH]cn1)[C@@H](C)O)[C@@H](C)O)C(=O)N[C@@H](C)C(=O)N[C@@H](Cc1c[nH]c2ccccc12)C(=O)N[C@@H](CC(C)C)C(=O)N[C@@H](CC(C)C)C(=O)N[C@@H](CCC(=O)O)C(=O)N[C@@H](CCCCN)C(=O)NC(C)(C)C(=O)N[C@@H](CCCCN)C(=O)N[C@@H](CCC(=O)O)C(=O)N[C@@H](Cc1ccccc1)C(=O)N[C@@H](CC(C)C)C(N)=O` [Compound 58] (H-HSQGTFTSDYSKYLEEKKAKEFIAWLLEK[Aib]KEFL-NH2), the pEC50 is, setting by setting: under setting [2], 8.93; under setting [1], 9.23.

In the case of “HAEGTFTSDVSSYLEEEAVKEFIAWLVEKVKEF-NH2 [Compound 132, [Glu22,Glu23,Val25,Glu34,Lys35,Val36,Lys37]-GLP-1-(7-37)-peptidyl-Glu-Phe amide]”, the pEC50 by setting is: under setting [2], 10.70; under setting [1], 11.00.

Take “HAEGTFTSDVSSYLEGQAAKEFIAWLVEHVKEFL-NH2 [Compound 140, [Glu34,His35,Val36,Lys37]-GLP-1-(7-37)-peptidyl-Glu-Phe-Leu amide]”: the pEC50 under setting [2] is 9.99.

“HAEGTFTNDMTNYLEGEAVKEFIAWLVEKGKEFL-NH2 [Compound 27, [Asn14,Met16,Thr17,Asn18,Glu23,Val25,Glu34,Lys35,Gly36,Lys37]-GLP-1-(7-37)-peptidyl-Glu-Phe-Leu amide]” had a pEC50 under setting [1] of 10.55.

As for “HAEGTFTSDVSSYLEGQAAKEFIAWLVEKVKEFY-NH2 [Compound 131, [Glu34,Lys35,Val36,Lys37]-GLP-1-(7-37)-peptidyl-Glu-Phe-Tyr amide]”, the pEC50 runs as follows: under setting [2], 10.43; under setting [1], 10.85.

Under setting [1], `CC[C@H](C)[C@H](NC(=O)[C@H](Cc1ccccc1)NC(=O)[C@H](CCC(=O)O)NC(=O)[C@H](CCCCN)NC(=O)[C@@H](NC(=O)[C@H](C)NC(=O)[C@H](CCC(=O)O)NC(=O)CNC(=O)[C@H](CCC(=O)O)NC(=O)[C@H](Cc1ccc(O)cc1)NC(=O)[C@H](Cc1ccc(O)cc1)NC(=O)[C@H](CO)NC(=O)[C@H](CO)NC(=O)[C@@H](NC(=O)[C@H](CC(=O)O)NC(=O)[C@H](Cc1c[nH]cn1)NC(=O)[C@@H](NC(=O)[C@H](Cc1ccccc1)NC(=O)[C@@H](NC(=O)CNC(=O)[C@H](CCC(=O)O)NC(=O)[C@H](C)NC(=O)[C@@H](N)Cc1c[nH]cn1)[C@@H](C)O)[C@@H](C)O)C(C)C)C(C)C)C(=O)N[C@@H](C)C(=O)N[C@@H](Cc1c[nH]c2ccccc12)C(=O)N[C@@H](CC(C)C)C(=O)N[C@H](C(=O)N[C@@H](CCC(=O)O)C(=O)N[C@@H](CCCCN)C(=O)NC(C)(C)C(=O)N[C@@H](CCCCN)C(=O)N[C@@H](CCC(=O)O)C(=O)N[C@@H](Cc1ccccc1)C(=O)N[C@@H](CC(C)C)C(N)=O)C(C)C` [Compound 15, [His4,Tyr20,Glu23,Val25,Glu34,Lys35,Aib36,Lys37]-GLP-1-(7-37)-peptidyl-Glu-Phe-Leu amide] (H-HAEGTFTHDVSSYYEGEAVKEFIAWLVEK[Aib]KEFL-NH2; N-terminus assumed) gave a pEC50 of 10.00.

For the compound “HAEGTFTSDVSSYLEGQAAKEFIAWLVEKVHEFL-NH2 [Compound 141]”, the pEC50 under setting [1] was 10.52.

Turning to “HAEGTFTSDVSSYLEGQAAKEFIAWLVEKVKEF-NH2 [Compound 122, [Glu34,Lys35,Val36,Lys37]-GLP-1-(7-37)-peptidyl-Glu-Phe amide]”, the pEC50 is 10.80 under setting [2] and 11.30 under setting [1].
